# Test results as given in patent publication US6399568B1, “Cyclic tetrapeptide derivatives and medicinal use thereof” (Japan Energy Corporation, priority 1997, dated 2002).
# Non-standard residues stand in square brackets, D forms with d. Residues, ends and D or L forms follow the SMILES beside them. *: point of attachment. Asu = N[C@@H](CCCCCC(=O)O)C(=O)O; NHOH = ON*
# Assays:
# [1] = test system: colon cancer Colon26 cell line; test: Cell proliferation inhibition (72 hours); assay type: cell-based, mouse; details: read-out: 50% proliferation inhibiting concentration Colon 26 (nM) mean
# Description: (§1) In order to verify the action of the cyclic tetrapeptide derivative according to the present invention in inhibiting cell proliferation in cancerized cells, the action on the proliferation of the aforementioned B16/BL6 cells was investigated. The evaluation of cell proliferation rates was done utilizing a commercially available measuring kit, specifically, from Promega under the trade name CellTiter 96 Aqueous Non-Radioactive Proliferation Assay Kit. In the measuring kit, the amount of products through reduction of a reagent tetrazolium compound (3-(4,5-dimethylthiazol-2-yl)-5-(3-carboxymethoxyphenyl)-2-(4-sulfophenyl)-2H-tetrazolium, inner salt; MTS) by viable animal cells is determined by detecting spectrophotometrically the color generated from the products. Since the amount of products is proportional to the amount of viable cells, this kit is utilized to evaluate the amount of viable cells.
# (§2) According to the procedure of Test Example 1, B16/BL6 cells are inoculated in a 96 well microplate and cultured for 24 hours. Then, 10 μl of a solution of the source solution of a compound to be tested which has been diluted to a predetermined amount per well is added. Thereafter, culture is continued for additional 48 hours and 20 μl of a reagent solution in the aforementioned CellTiter 96 Aqueous Non-Radioactive Proliferation Assay Kit is then added. After incubation is continued at 37° C. for 1 hour, the amount of color generation is measured as an absorbance at 490 n musing a microplate reader.
# (§3) The amount of cell proliferation of a group to which a compound to be tested is added is expressed in a relative value as compared to the standard cell proliferation (100%) in a control group to which no compound to be tested is added. For each compound tested, the amounts of cell proliferation were measured at different concentrations of addition and the dependence of the quantitative cell proliferation on the concentration of addition was investigated. From the results, a concentration of addition at which the amount of cell proliferation was inhibited by 50% relative to the amount of cell proliferation in the control group without addition was determined.
# (§4) The test method was in accordance with the above-mentioned procedure, except that the period of incubation after the addition of a compound was 72 hours.
# (§5) As illustrative examples, results are shown for an evaluation using mouse malignant melanoma B16/BL6 and B16 cell lines; leukemia L1210 cell line, colon cancer Colon26 cell line, and liver cancer MH134 cell line as cancer cells. For the cell proliferation inhibiting action of each compound tested for these cancer cells, 50% proliferation inhibiting concentrations are shown in Table 4.
# leukemia L1210 cell line = test: Cell proliferation inhibition (72 hours); assay type: cell-based, mouse; details: read-out: 50% proliferation inhibiting concentration L1210 (nM) mean
# Description: as §1, §2, §3, §4, §5
# [2] = test system: liver cancer MH134 cell line; test: Cell proliferation inhibition (72 hours); assay type: cell-based, mouse; details: read-out: 50% proliferation inhibiting concentration MH134 (nM) mean
# Description: as §1, §2, §3, §4, §5
# [3] = test system: mouse malignant melanoma B16/BL6 cell line; assay type: cell-based; details: 72 hours; read-out: 50% proliferation inhibiting concentration B16/BL6 (nM) mean
# Description: as §1
# as §2, with “Then, 10 μl of a solution of the source solution of a compound to be tested which has been diluted to a predetermined amount per well is added.” left out
# as §3, with “investigated.” for “investigated. From the results, a concentration of addition at which the amount of cell proliferation was inhibited by 50% relative to the amount of cell proliferation in the control group without addition was determined.”
# as §4
# [4] = target: Mouse histone deacetylase; assay type: biochemical; details: enzyme from FM3A cells; [3H]acetyl histone; 37° C. 10 minutes
# Experimental: In an enzyme system using a radio-labelled acetylated histone as a substrate, histone deacetylase enzyme inhibiting activity was evaluated. The basic conditions were in accordance with the method of Yoshida et al. (J. Biol. Chem., 265, 17174-17179, 1990).
# Mouse histone deacetylase to be used was partially purified from FM3A cells. Cells were suspended in HDA buffer (15 mM potassium phosphate, 5% glycerol, 0.2 mM EDTA, pH 7.5), homogenized and centrifuged (35000×g, 10 min) to collect the nuclei which in turn were homogenized in the same buffer containing 1 M (NH4)2SO4. After ultrasonic disruption and centrifugation, the concentration of (NH4)2SO4 in the supernatant was increased to 3.5 M to precipitate deacetylase enzyme proteins. This precipitate was redissolved in HDA buffer, dialyzed against HDA buffer, applied to DEAE-cellulose column and eluted in NaCl gradient. Active fractions were used as a histone deacetylase enzyme solution.
# As a substrate, [^3H]acetyl histone was used. In a culture solution of FM3A cells in the presence of 5 mM sodium n-butyrate, [^3H]acetate was added, followed by incubation for 30 minutes to radio-label the histone. The histone was prepared in a conventional manner and used as a substrate solution.
# An assay was performed by adding a compound to be tested at a given concentration while using a no-addition control group, and by incubating the substrate solution and the enzyme solution at 37° C. for 10 minutes (reaction volume, 100 μl). The enzyme reaction was stopped by adding 10 μl of concentrated hydrochloric acid and the excised [^3H]acetate was extracted with ethyl acetate for radioactivity measurement. The inhibiting activity was expressed by a concentration at which the enzyme activity in the control group was inhibited by 50% (50% inhibiting concentration).
# [5] = rat, in vivo, 10 mg/kg
# Experimental: Under anesthesia with Ketamine/Kylazine mixture, SD rats were administered with HDA-31 into the tail vein (10 mg/kg; 2 ml/kg). The drug was dispersed in PBS and neutralized with NaOH and the resulting suspension was used. After administration, blood was taken from the carotid artery at a given interval of time (using heparin as an anti-coagulant) and centrifuged to prepare plasma. HDA-31 in the plasma was extracted with MTBE (methyl-t-butyl-ether) and separated by reverse-phase HPLC and a peak area corresponding to HDA-31 was quantitatively determined with a mass spectrometer.
smiles,measurement,setting,value
"CC[C@H](C)[C@@H]1NC(=O)[C@@H](Cc2ccc(OC)cc2)NC(=O)[C@H](CCCCCC(=O)NO)NC(=O)[C@H]2CCCN2C1=O [HDA-31, cyclo(-L-Asu(NHOH)-D-Tyr(Me)-L-Ile-D-Pro-)] (cyclo([Asu](NHOH)[dY](Me)I[dP]))",IC50,[1],33 nM
same,IC50,leukemia L1210 cell line,18.8 nM
same,IC50,[2],50.7 nM
same,IC50,[3],5.43 nM
same,IC50,[4],0.00208 µM
same,concentration in blood (plasma) after intravenous administration,[5],concentrations in blood exceeding the stated effective concentrations were maintained over a few hours
